Laboratory results reported in patent publication US12201669B2, “Small molecule suppressors of APOE gene expression and cerebral vascular amyloid pathology” (Massachusetts Institute of Technology, priority 2021, dated 2025).

Legend:
APOE [1] = details: E4 pericytes, earlier work of the inventors; cited from earlier work
APOE4/5×FAD mice = details: mouse, in vivo
APOE [2] = test: APOE expression by qRT-PCR in APOE4/4 pericytes treated with cyclosporin analogs; assay type: cell-based, human; details: compared with cyclosporin A and FK506
From the text: FIGS. 2A-2D show APOE expression measured by qRT-PCR in APOE4/4 pericytes following treatment with Cyclosporin A (FIG. 2A), FK506 (FIG. 2B), Cyclosporin D (FIG. 2C), Cyclosporin H (FIG. 2D). One-way ANOVA with Bonferroni's Multiple Comparison test, 6 replicates per a timepoint.
FK506 and cyclosporin A can reduce the expression of APOE in human pericytes and brain cells and reverse or prevent cerebrovascular pathologies associated with Alzheimer's Disease such as cerebral amyloid angiopathy. Both cyclosporine A and FK506 have immunosuppressant activity. […] Results showing APOE expression after APOE4 pericytes were treated with Cyclosporin analogs for two weeks are depicted in FIG. 1. Following treatment with Cyclosporin A, FK506, Cyclosporin D, Cyclosporin H, APOE expression was measured by qRT-PCR in APOE4/4 pericytes (see FIGS. 2A-2D).

## O=C1C=CC(=O)C2=C1C1c3ccccc3C2c2ccccc21 [INCA6]
APOE [1]
  APOE gene expression: reduction
  APOE protein: reduction

## C=CC[C@@H]1/C=C(\C)C[C@H](C)C[C@H](OC)[C@H]2O[C@@](O)(C(=O)C(=O)N3CCCC[C@H]3C(=O)O[C@H](/C(C)=C/[C@@H]3CC[C@@H](O)[C@H](OC)C3)[C@H](C)[C@@H](O)CC1=O)[C@H](C)C[C@@H]2OC [FK506]
APOE4/5×FAD mice
  toxicity compared to cyclosporine treated mice: less toxicity

## C/C=C/C[C@@H](C)[C@@H](O)[C@H]1C(=O)N[C@@H](C(C)C)C(=O)N(C)CC(=O)N(C)[C@@H](CC(C)C)C(=O)N[C@@H](C(C)C)C(=O)N(C)[C@@H](CC(C)C)C(=O)N[C@@H](C)C(=O)N[C@H](C)C(=O)N(C)[C@@H](CC(C)C)C(=O)N(C)[C@@H](CC(C)C)C(=O)N(C)[C@@H](C(C)C)C(=O)N1C [cyclosporin D]
APOE [2]
  kinetics of APOE expression reduction: faster kinetics
  potency in reducing APOE expression (able to reduce at lower doses): significantly more potent
